# Test results: patent US9346813B2, “Substituted pyrrolo[2,3-d]pyrimindines as CDK9 kinase inhibitors” (AbbVie Inc., priority 2014, dated 2016)
# What was measured:
# CDK9/Cyclin T1 = molecular target: T1, CDK9/Cyclin T1 (Homo sapiens, UniProt P50750); test: CDK9 enzyme protocol (LANCE ULight TR-FRET kinase assay); assay type: biochemical; details: 4 nM CDK9/Cyclin T1, 1000 μM ATP, 100 nM U-light MBP peptide, 30 minutes
# T1 construct: purchased Carna Biosciences 04-110
# How it was run: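 Human CDK9/Cyclin T1 (4 nM) phosphorylated 100 nM ULight-MBP peptide at 1000 μM ATP for 30 min in HEPES/MgCl2/Triton buffer. The reaction was stopped with 20 mM EDTA plus 0.5 nM Eu anti-phospho-MBP antibody and equilibrated 1 h. Read-out was TR-FRET (ex 320, em 615/665 nm).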
# A431 cells = test: Cell viability assay in A431 cells (Cell TiterGlo); assay type: cell-based; details: Homo sapiens, A-431, 24 hours at 37° C.
# Experimental: Cell viability assays were performed using A431 or H929 cells. A431 cells were seeded in 96-well plates at 10,000 cells/well, and after overnight incubation, treated with compounds at 2-times the final concentration to result in a dose response of 3-fold dilutions from 10 μM to 0.0005 μM (50 μL/well, 0.1% final DMSO concentration). H929 cells were seeded in 96-well plates at 10,000 cells/well and treated immediately with compounds as described above. After 24 hours at 37° C., cell viability was measured using Cell TiterGlo reagent (Promega) with a luminescence reader. Alternately, cell viability assays were performed in 384-well format. A431 cells were seeded in 384-well plates at 2500 cells/well and, after overnight incubation, treated with compounds in a dose response of 3-fold dilutions from 10 μM to 0.0005 μM (25 nL/well, 0.1% final DMSO concentration). For the H929 viability assay, 25 nL/well of the compounds was dispensed into 384-well plates in a dose response as described above and cells were immediately seeded in 384-well plates at 2500 cells/well. After 24 hours at 37° C., cell viability was measured using Cell TiterGlo reagent (Promega) with a luminescence reader.
# H929 cells = test: Cell viability assay in H929 cells (Cell TiterGlo); assay type: cell-based; details: Homo sapiens, NCI-H929, 24 hours at 37° C.
# How it was run: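 Cells seeded at 10,000 (96-well) or 2500 (384-well) cells/well; A431 dosed after overnight attachment, H929 dosed at seeding. 3-fold dilutions from 10 μM to 0.0005 μM, 0.1% final DMSO. Viability read by Cell TiterGlo luminescence after 24 hours at 37° C.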
# T1 sequence (P50750 whole entry): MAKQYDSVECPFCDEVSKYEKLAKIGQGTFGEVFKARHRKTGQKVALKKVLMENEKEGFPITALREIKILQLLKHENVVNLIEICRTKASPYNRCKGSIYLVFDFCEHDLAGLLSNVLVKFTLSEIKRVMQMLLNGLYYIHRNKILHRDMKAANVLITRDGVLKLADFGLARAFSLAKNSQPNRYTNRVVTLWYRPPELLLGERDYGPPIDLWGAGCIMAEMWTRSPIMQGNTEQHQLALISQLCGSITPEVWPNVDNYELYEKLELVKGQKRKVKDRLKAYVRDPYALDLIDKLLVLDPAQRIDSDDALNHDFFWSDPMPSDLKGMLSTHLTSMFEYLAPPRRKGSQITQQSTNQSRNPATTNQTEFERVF
# T1 sequence (O60563 whole entry partner): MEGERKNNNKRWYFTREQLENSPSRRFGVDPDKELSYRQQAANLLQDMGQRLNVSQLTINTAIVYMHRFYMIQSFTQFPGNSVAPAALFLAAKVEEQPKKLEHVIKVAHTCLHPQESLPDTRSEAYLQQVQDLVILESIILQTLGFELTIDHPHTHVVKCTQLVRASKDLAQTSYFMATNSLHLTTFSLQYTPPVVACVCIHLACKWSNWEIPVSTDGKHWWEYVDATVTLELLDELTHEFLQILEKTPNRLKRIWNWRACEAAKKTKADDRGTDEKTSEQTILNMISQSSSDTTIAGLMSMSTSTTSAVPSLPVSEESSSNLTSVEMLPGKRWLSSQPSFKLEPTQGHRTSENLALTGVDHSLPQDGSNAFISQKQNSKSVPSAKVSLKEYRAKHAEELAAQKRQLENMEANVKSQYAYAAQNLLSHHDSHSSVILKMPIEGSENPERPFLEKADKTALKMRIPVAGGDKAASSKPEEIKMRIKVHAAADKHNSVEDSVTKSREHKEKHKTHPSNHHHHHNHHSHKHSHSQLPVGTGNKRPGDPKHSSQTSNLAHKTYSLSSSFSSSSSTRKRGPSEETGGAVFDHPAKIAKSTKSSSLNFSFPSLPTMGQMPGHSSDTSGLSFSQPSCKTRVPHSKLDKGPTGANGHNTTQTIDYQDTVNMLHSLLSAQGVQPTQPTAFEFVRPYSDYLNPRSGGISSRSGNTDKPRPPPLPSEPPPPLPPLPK
Structure (SMILES),IC50 (CDK9/Cyclin T1) [nM],EC50 (A431 cells) [nM],EC50 (H929 cells) [nM]
"COc1ccc(F)cc1-c1ncnc2[nH]c(C3=CCNCC3)cc12 [Example 3, 4-(5-fluoro-2-methoxyphenyl)-6-(1,2,3,6-tetrahydropyridin-4-yl)-7H-pyrrolo[2,3-d]pyrimidine]",–,32,200
"CNC(=O)N1CC=C(c2cc3c(-c4cc(F)ccc4OC)ncnc3[nH]2)CC1 [Example 17, 4-[4-(5-fluoro-2-methoxyphenyl)-7H-pyrrolo[2,3-d]pyrimidin-6-yl]-N-methyl-3,6-dihydropyridine-1(2H)-carboxamide]",120,260,200
"COc1ccc(F)cc1-c1ncnc2[nH]c(C3=CCN(Cc4ccc(C(=O)O)cc4)CC3)cc12 [Example 72, 4-({4-[4-(5-fluoro-2-methoxyphenyl)-7H-pyrrolo[2,3-d]pyrimidin-6-yl]-3,6-dihydropyridin-1(2H)-yl}methyl)benzoic acid]",110,5200,2400
"COc1ccc(F)cc1-c1ncnc2[nH]c(C3=CCN(CC(=O)N(C)C)CC3)cc12 [Example 80, 2-{4-[4-(5-fluoro-2-methoxyphenyl)-7H-pyrrolo[2,3-d]pyrimidin-6-yl]-3,6-dihydropyridin-1(2H)-yl}-N,N-dimethylacetamide]",–,130,120
"COc1ccc(F)cc1-c1ncnc2[nH]c(C3=CCN(Cc4ccc(NS(C)(=O)=O)cc4)CC3)cc12 [Example 81, N-[4-({4-[4-(5-fluoro-2-methoxyphenyl)-7H-pyrrolo[2,3-d]pyrimidin-6-yl]-3,6-dihydropyridin-1(2H)-yl}methyl)phenyl]methanesulfonamide]",75,110,100

# The next lines start with results.
IC50 (CDK9/Cyclin T1) [nM],EC50 (A431 cells) [nM],Structure (SMILES),EC50 (H929 cells) [nM]
72,120,"Fc1ccc(NCc2ccccc2)cc1-c1ncnc2[nH]c(C3CCNCC3)cc12 [Example 9, N-benzyl-4-fluoro-3-[6-(piperidin-4-yl)-7H-pyrrolo[2,3-d]pyrimidin-4-yl]aniline]",–
52,100,"COc1ccc(F)cc1-c1ncnc2[nH]c(C3CCNCC3)cc12 [Example 1, 4-(5-fluoro-2-methoxyphenyl)-6-(piperidin-4-yl)-7H-pyrrolo[2,3-d]pyrimidine]",–
37,150,"COc1ccc(F)cc1-c1ncnc2[nH]c(C3=CCN(C(=O)CO)CC3)cc12 [Example 7, 1-{4-[4-(5-fluoro-2-methoxyphenyl)-7H-pyrrolo[2,3-d]pyrimidin-6-yl]-3,6-dihydropyridin-1(2H)-yl}-2-hydroxyethanone]",180
